According to ChEMBL document CHEMBL3992484, “Synthetic α-Hydroxytropolones as Inhibitors of HIV Reverse Transcriptase Ribonuclease H Activity” (Medchemcomm, 2016):

Assays:
[1] = Cytotoxicity against human CEM-SS cells after 7 days by XTT assay; assay type: cell-based
[2] = Inhibition of HIV-1 RT-RNase H using 18-nucleotide 3'-fluorescein-labeled RNA annealed to a complementary 18-nucleotide 5'-dabsyl-labeled DNA as substrate measured after 10 mins by FRET assay; parameters: species or system Human immunodeficiency virus 1
[3] = test system: Human immunodeficiency virus 1; assay: Antiviral activity against HIV1 RF infected in human CEM-SS cells assessed as protection against viral-induced cytopathic effect after 7 days by XTT assay; assay type: functional, cell-based; settings: Human immunodeficiency virus 1, RF, 168 h
[4] = test system: Human immunodeficiency virus 1; assay: Stabilization of HIV-1 RT-RNase H assessed as change in melting temperature at 20 uM by sypro-orange dye-based differential scanning fluorimetric analysis

Structure (SMILES) | CC50 at 168 h [1] [µM] | IC50 [2] [µM] | EC50 [3] [µM] | ΔTm [4] [°C]
CC(=O)c1cc(O)c(=O)c(O)cc1C | 20 | 0.29 | 6.9 | 2.9
CCOC(=O)c1cc(O)c(=O)c(O)cc1C |  | 0.25 | 5 | 2.4
COC(=O)c1cc(O)c(=O)c(O)cc1C |  | 0.16 | 7.5 | 2.7
CC(C)c1ccc(O)c(=O)c(O)c1 |  |  |  | 2.3
COC(=O)c1c(C)cc(O)c(=O)c(O)c1Br | 7.6 | 0.13 | 2.2 | 2.48
